Laboratory results: US9730937B2, “RAF kinase modulator compounds and methods of use thereof” (AMBIT BIOSCIENCES CORPORATION, priority 2008, dated 2017)
Where a name gives a salt, the structure may show the parent alone. Read-outs that look alike come from different tables or passages of the source.

What was measured:
RAF kinases = RAF kinases (Homo sapiens (Human), UniProt P04049); details: read-out: RAF1 Kd, class symbols
Description: The liganded beads were blocked with excess biotin and washed with blocking buffer (SeaBlock (Pierce), 1% BSA, 0.05% Tween 20, 1 mM DTT) to remove unbound ligand and to reduce non-specific binding. […] Test compounds were prepared as 100× stocks in DMSO and rapidly diluted into the aqueous environment. DMSO was added to control assays lacking a test compound. Primary screen interactions were performed in polypropylene 384-well plates in a final volume of 34 μL, while Kd determinations were performed in polystyrene 96-well plates in a final volume of 135 μL. […] The kinase concentration in the eluates was measured by quantitative PCR. Each kinase was tested individually against each compound. KdS were determined using eleven serial threefold dilutions. A selectivity score, which is a quantitative measure of selectivity of a compound against a panel of enzymes, may be calculated for a compound by dividing the number of enzymes for which a compound meets a set criteria, (for example, a binding constant of 100 nM or less), by the total number of enzymes tested. […] (Note, for those compounds tested in a larger kinase panel, as indicated by an asterisk (*) next to the S35 score, the divisor is 321 (i.e. the larger panel contains 321 distinct kinases, excluding mutant variants.)).

[1] = system: panel of 290 distinct kinases (321 in the larger panel), excluding mutant variants; details: kinase selectivity score, class symbols
mutant BRAF kinase = mutant BRAF kinase (Homo sapiens (Human), UniProt P15056, V600E); details: read-out: BRAF V600E Kd, class symbols
mutant BRAF kinase, sequence (P15056 whole entry V600E): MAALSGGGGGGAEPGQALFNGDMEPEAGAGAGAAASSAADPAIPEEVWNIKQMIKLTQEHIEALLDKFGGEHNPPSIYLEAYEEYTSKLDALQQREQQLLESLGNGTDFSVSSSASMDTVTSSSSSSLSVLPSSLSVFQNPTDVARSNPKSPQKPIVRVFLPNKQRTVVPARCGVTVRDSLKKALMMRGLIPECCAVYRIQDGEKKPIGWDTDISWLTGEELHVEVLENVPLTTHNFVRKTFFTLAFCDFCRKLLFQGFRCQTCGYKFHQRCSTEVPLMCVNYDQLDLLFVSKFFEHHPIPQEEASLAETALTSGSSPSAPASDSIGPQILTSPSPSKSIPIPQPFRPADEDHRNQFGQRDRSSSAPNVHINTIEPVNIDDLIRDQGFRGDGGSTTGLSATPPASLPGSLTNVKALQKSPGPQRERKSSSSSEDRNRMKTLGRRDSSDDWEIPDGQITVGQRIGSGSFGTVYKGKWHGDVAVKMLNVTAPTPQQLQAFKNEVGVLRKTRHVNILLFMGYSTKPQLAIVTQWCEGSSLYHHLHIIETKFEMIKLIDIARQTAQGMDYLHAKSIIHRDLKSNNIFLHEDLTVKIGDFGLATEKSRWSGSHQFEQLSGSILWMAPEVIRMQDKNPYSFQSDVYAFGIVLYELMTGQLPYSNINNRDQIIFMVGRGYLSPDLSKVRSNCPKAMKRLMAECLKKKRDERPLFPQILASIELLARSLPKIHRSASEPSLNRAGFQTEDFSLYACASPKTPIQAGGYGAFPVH

[2] = value marked * (larger kinase panel)

RAF kinases, sequence (P04049 whole entry): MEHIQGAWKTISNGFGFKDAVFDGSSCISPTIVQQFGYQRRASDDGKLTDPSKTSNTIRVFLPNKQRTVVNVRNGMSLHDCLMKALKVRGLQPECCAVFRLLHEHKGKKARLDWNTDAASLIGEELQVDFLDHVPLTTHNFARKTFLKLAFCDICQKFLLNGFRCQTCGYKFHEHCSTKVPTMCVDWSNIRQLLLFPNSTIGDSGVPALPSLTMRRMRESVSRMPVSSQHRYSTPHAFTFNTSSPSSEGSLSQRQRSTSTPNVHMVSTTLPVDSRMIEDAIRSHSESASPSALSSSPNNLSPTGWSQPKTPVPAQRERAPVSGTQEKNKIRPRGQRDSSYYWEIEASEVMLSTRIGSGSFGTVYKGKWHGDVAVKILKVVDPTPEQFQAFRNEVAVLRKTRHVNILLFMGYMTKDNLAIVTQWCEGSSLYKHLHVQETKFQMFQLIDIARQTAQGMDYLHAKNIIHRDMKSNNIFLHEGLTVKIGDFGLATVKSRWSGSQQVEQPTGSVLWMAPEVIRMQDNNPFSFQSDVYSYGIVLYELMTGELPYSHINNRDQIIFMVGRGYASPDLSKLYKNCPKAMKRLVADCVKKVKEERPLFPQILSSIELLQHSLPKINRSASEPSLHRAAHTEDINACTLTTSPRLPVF

Structure (SMILES) | Kd (RAF kinases) [nM] | S35 ([1]; 290 distinct kinases) | Kd (mutant BRAF kinase) [nM] | S35 [1, 2]
COc1cc2ncnc(Sc3cccc(NC(=O)Nc4cc(C(C)(C)C)on4)c3)c2cc1OCCCN1CCN(CCO)CC1 [Ex 61, 1-(5-tert-butylisoxazol-3-yl)-3-(3-(6-(3-(4-(2-hydroxyethyl)piperazin-1-yl)propoxy)-7-methoxyquinazolin-4-ylthio)phenyl)urea] | < 250 | D (D > 0.40) | < 250 | 
COc1cc2ncnc(Oc3cccc(NC(=O)Nc4cc(C(C)(C)C)on4)c3)c2cc1O[C@H]1CCN(CC(F)F)C1 [Ex 110, (S)-1-(5-tert-butylisoxazol-3-yl)-3-(3-(6-(1-(2,2-difluoroethyl)pyrrolidin-3-yloxy)-7-methoxyquinazolin-4-yloxy)phenyl)urea] | < 250 | C (0.20 < C ≦ 0.40) | < 250 | 
COc1cc2ncnc(Oc3cccc(NC(=O)Nc4cc(C(C)(C)C)on4)c3)c2cc1OCCCN1CCS(=O)(=O)CC1 [Ex 26, 1-(5-tert-butyl-isoxazol-3-yl)-3-(3-{6-[3-(1,1-dioxo-thiomorpholin-4-yl)-propoxy]-7-methoxy-quinazolin-4-yloxy}-phenyl)-urea] | < 250 | D (D > 0.40) | < 250 | 
COc1cc2c(Sc3cccc(NC(=O)Nc4cc(C(C)(C)C)on4)c3)ncnc2cc1OCCCN1CCC(CO)CC1 [Ex 74, 1-(5-tert-butylisoxazol-3-yl)-3-(3-(7-(3-(4-(hydroxymethyl)piperidin-1-yl)propoxy)-6-methoxyquinazolin-4-ylthio)phenyl)urea] | < 250 | D (D > 0.40) | < 250 | 
COc1cc2ncnc(Sc3cccc(NC(=O)Nc4cc(C(C)(CF)CF)on4)c3)c2cc1OC [Ex 191, 1-[5-(1,3-difluoro-2-methylpropan-2-yl)isoxazol-3-yl]-3-[3-(6,7-dimethoxyquinazolin-4-ylthio)phenyl]urea] | < 250 |  | < 250 | C* (0.20 < C ≦ 0.40)
COc1cc2ncnc(Oc3cccc(NC(=O)Nc4cc(C(C)(C)C)on4)c3)c2cc1OCCN1CCCCC1 [Ex 16, 1-(5-tert-butylisoxazol-3-yl)-3-(3-(7-methoxy-6-(2-(piperidin-1-yl)ethoxy)quinazolin-4-yloxy)phenyl)urea] | > 1000 | C (0.20 < C ≦ 0.40) | < 250 | 
COc1cc2ncnc(Sc3cccc(NC(=O)Nc4cc(C(C)(C)C)on4)c3)c2cc1OCCN1CCOCC1 [Ex 70, 1-(5-tert-butylisoxazol-3-yl)-3-(3-(7-methoxy-6-(2-morpholinoethoxy)quinazolin-4-ylthio)phenyl)urea] | < 250 | C (0.20 < C ≦ 0.40) | < 250 | 
COCCOc1cc(NC(=O)Nc2cccc(Sc3ncnc4cc(OC)c(OC)cc34)c2)cc(C(F)(F)F)c1 [Ex 200, 1-(3-(6,7-dimethoxyquinazolin-4-ylthio)phenyl)-3-(3-(2-methoxyethoxy)-5-(trifluoromethyl)phenyl)urea] | > 1000 | C (0.20 < C ≦ 0.40) |  | 
COc1cc2c(Oc3cccc(NC(=O)Nc4cc(C(C)(C)C)on4)c3)ncnc2cc1OCCCN1CCN(C)CC1 [Ex 28, 1-(5-tert-butylisoxazol-3-yl)-3-(3-(6-methoxy-7-(3-(4-methylpiperazin-1-yl)propoxy)quinazolin-4-yloxy)phenyl)urea] | < 250 | D (D > 0.40) | < 250 | 
COc1cc2ncnc(Sc3cccc(NC(=O)Nc4cc(C(C)(C)C)on4)c3)c2cc1OCCCN1CCOCC1 [Ex 63, 1-(5-tert-butylisoxazol-3-yl)-3-(3-(7-methoxy-6-(3-morpholinopropoxy)quinazolin-4-ylthio)phenyl)urea] | < 250 | C (0.20 < C ≦ 0.40) | < 250 | 
COc1cc2c(Oc3cccc(NC(=O)Nc4cc(C(C)(C)C)on4)c3)ncnc2cc1O[C@H]1CCNC1 [Ex 96, (S)-1-(5-tert-butylisoxazol-3-yl)-3-(3-(6-methoxy-7-(pyrrolidin-3-yloxy)quinazolin-4-yloxy)phenyl)urea dihydrochloride] | < 250 | C (0.20 < C ≦ 0.40) | < 250 | 
COc1cc2ncnc(Sc3cccc(NC(=O)Nc4cc(C(C)(C)C)on4)c3)c2cc1OCCCN1CCS(=O)(=O)CC1 [Ex 62, 1-(5-tert-butyl-isoxazol-3-yl)-3-(3-{6-[3-(1,1-dioxo-thiomorpholin-4-yl)-propoxy]-7-methoxy-quinazolin-4-ylsulfanyl}-phenyl)-urea] | < 250 | C (0.20 < C ≦ 0.40) | < 250 | 
COc1cc2ncnc(Oc3cccc(NC(=O)Nc4cc(C(C)(C)CO)on4)c3)c2cc1OC [Ex 131, 1-(3-(6,7-dimethoxyquinazolin-4-yloxy)phenyl)-3-(5-(1-hydroxy-2-methylpropan-2-yl)isoxazol-3-yl)urea] | < 250 | C (0.20 < C ≦ 0.40) | < 250 | 
COc1cc2ncnc(Oc3cccc(NC(=O)Nc4cc(C(C)(CF)CF)on4)c3)c2cc1OC [Ex 162, 1-[5-(1,3-difluoro-2-methylpropan-2-yl)isoxazol-3-yl]-3-[3-(6,7-dimethoxyquinazolin-4-yloxy)phenyl]urea] | < 250 |  | < 250 | C* (0.20 < C ≦ 0.40)
COc1cc2ncnc(Oc3cccc(NC(=O)Nc4cccc(C(C)(C)C)c4)c3)c2cc1OC [Ex 118, 1-(3-tert-butylphenyl)-3-(3-(6,7-dimethoxyquinazolin-4-yloxy)phenyl)urea] | < 250 |  | < 250 | C* (0.20 < C ≦ 0.40)
COc1cc2ncnc(Sc3cccc(NC(=O)Nc4cccc(C(C)(C)C)c4)c3)c2cc1OC [Ex 120, 1-(3-tert-butylphenyl)-3-(3-(6,7-dimethoxyquinazolin-4-ylthio)phenyl)urea] | < 250 |  | < 250 | C* (0.20 < C ≦ 0.40)
COc1cc2ncnc(Oc3cccc(NC(=O)Nc4cc(C(C)(C)C)on4)c3)c2cc1OC[C@@H](O)CN1CCN(C)CC1 [Ex 111, (S)-1-(5-tert-butylisoxazol-3-yl)-3-(3-(6-(2-hydroxy-3-(4methylpiperazin-1-yl)propoxy)-7-methoxyquinazolin-4-yloxy)phenyl)urea] | < 250 | D (D > 0.40) | < 250 | 
COc1cc2ncnc(Oc3cccc(NC(=O)Nc4cc(-c5ccccc5)on4)c3)c2cc1OC [Ex 113, 1-(3-(6,7-dimethoxyquinazolin-4-yloxy)phenyl)-3-(5-phenylisoxazol-3-yl)urea] | < 250 | B (0.10 < B ≦ 0.20) |  | 
COc1cc2c(Oc3cccc(NC(=O)Nc4cc(C(C)(C)C)on4)c3)ncnc2cc1O[C@@H]1CCNC1 [Ex 98, (R)-1-(5-tert-butylisoxazol-3-yl)-3-(3-(6-methoxy-7-(pyrrolidin-3-yloxy)quinazolin-4-yloxy)phenyl)urea dihydrochloride] | < 250 | C (0.20 < C ≦ 0.40) | < 250 | 
COc1cc2ncnc(Sc3cccc(NC(=O)Nc4cc(C5CCCC5)on4)c3)c2cc1OC [Ex 201, 1-(5-Cyclopentylisoxazol-3-yl)-3-(3-(6,7-dimethoxyquinazolin-4-ylthio)phenyl)urea] | < 250 |  | < 250 | C* (0.20 < C ≦ 0.40)
COc1cc2ncnc(Oc3cccc(NC(=O)Nc4ccc(OC)c(C(F)(F)F)c4)c3)c2cc1OC [Ex 138, 1-(3-(6,7-dimethoxyquinazolin-4-yloxy)phenyl)-3-(4-methoxy-3-(trifluoromethyl)phenyl)urea] | < 250 | B (0.10 < B ≦ 0.20) | < 250 | 
COc1cc2ncnc(Sc3cccc(NC(=O)Nc4cc(C(C)(C)F)no4)c3)c2cc1OC [Ex 187, 1-(3-(6,7-dimethoxyquinazolin-4-ylthio)phenyl)-3-(3-(2-fluoropropan-2-yl)isoxazol-5-yl)urea] | < 250 |  | < 250 | C* (0.20 < C ≦ 0.40)
COc1cc2ncnc(Oc3cccc(NC(=O)Nc4cc(C(C)(C)C)on4)c3)c2cc1O [Ex 107, 1-(5-tert-butylisoxazol-3-yl)-3-(3-(6-hydroxy-7-methoxyquinazolin-4-yloxy)phenyl)urea] | < 250 | C (0.20 < C ≦ 0.40) | < 250 | 
COc1cc2ncnc(Oc3cccc(NC(=O)Nc4ccc(C(F)(F)F)cc4)c3)c2cc1OC [Ex 183, 1-(3-(6,7-dimethoxyquinazolin-4-yloxy)phenyl)-3-(4-(trifluoromethyl)phenyl)urea] | < 250 |  | < 250 | C* (0.20 < C ≦ 0.40)
COc1cc2ncnc(Sc3cccc(NC(=O)Nc4cccc(C(F)(F)F)c4)c3)c2cc1OC [Ex 185, 1-(3-(6,7-dimethoxyquinazolin-4-ylthio)phenyl)-3-(3-(trifluoromethyl)phenyl)urea] | < 250 |  | < 250 | C* (0.20 < C ≦ 0.40)
COCCOc1cc2ncnc(Oc3cccc(NC(=O)Nc4cccc(C(C)(C)C)c4)c3)c2cc1OC [Ex 119, 1-(3-tert-butylphenyl)-3-(3-(6-methoxy-7-(2-methoxyethoxy)quinazolin-4-yloxy)phenyl)urea] |  |  | < 250 | C* (0.20 < C ≦ 0.40)
COc1cccc(NC(=O)Nc2cccc(Oc3ncnc4cc(OC)c(OC)cc34)c2)c1 [Ex 178, 1-(3-(6,7-dimethoxyquinazolin-4-yloxy)phenyl)-3-(3-methoxyphenyl)urea] |  |  | < 250 | B* (0.10 < B ≦ 0.20)
COc1cc2c(Oc3cccc(NC(=O)Nc4cc(C(C)(C)C)on4)c3)ncnc2cc1OCCCN1CCC(O)C1 (stereo not drawn) [Ex 31, 1-(5-tert-butyl-isoxazol-3-yl)-3-(3-{7-[3-(3-hydroxy-pyrrolidin-1-yl)-propoxy]-6-methoxy-quinazolin-4-yloxy}-phenyl)-urea] |  | D (D > 0.40) | < 250 | 
COc1cc2c(Oc3cccc(NC(=O)Nc4cc(C(C)(C)C)on4)c3)ncnc2cc1OCCCN1CCC(CO)CC1 [Ex 29] |  | D (D > 0.40) | < 250 | 
